Assay results taken from patent US20230277680A1, “CONJUGATE OF A SINGLE DOMAIN ANTIBODY, A SAPONIN AND AN EFFECTOR MOLECULE, PHARMACEUTICAL COMPOSITION COMPRISING THE SAME, THERAPEUTIC USE OF SAID PHARMACEUTICAL COMPOSITION” (SAPREME TECHNOLOGIES B.V., priority 2020, published 2023).

Assays:
SK-BR-3 cells = assay: Cell viability (MTS) assay, cell killing; assay type: cell-based, human; settings: read-out: [SO1861] IC50 cell killing; SKBR3; + fixed 1.5 μM EGF-dianthin
Protocol: (§1) After treatment the cells were incubated for 72 hr at 37° C. before the cell viability was determined by a MTS-assay, performed according to the manufacturer's instruction (CellTiter 96® AQueous One Solution Cell Proliferation Assay, Promega). Briefly, the MTS solution was diluted 20× in DMEM without phenol red (PAN-Biotech GmbH) supplemented with 10% FBS. The cells were washed once with 200 μL/PBS well, after which 100 μL diluted MTS solution was added/well. The plate was incubated for approximately 20-30 minutes at 37° C. Subsequently, the OD at 492 nm was measured on a Thermo Scientific Multiskan FC plate reader (Thermo Scientific). For quantification the background signal of ‘medium only’ wells was subtracted from all other wells, before the cell viability percentage of treated/untreated cells was calculated, by dividing the background corrected signal of treated wells over the background corrected signal of the untreated wells (×100). […]
(§2) After treatment the cells were incubated for 72 hr at 37° C. before the cell viability was determined by a MTS-assay, performed according to the manufacturer's instruction (CellTiter 96® AQueous One Solution Cell Proliferation Assay, Promega). […] Subsequently, the optical density at 492 nm was measured on a Thermo Scientific Multiskan FC plate reader (Thermo Scientific). […]

A431 cells = assay: Cell viability (MTS) assay, cell killing; assay type: cell-based, human; settings: read-out: [SO1861] IC50 cell killing, + fixed 10 μM cetuximab-saporin, calculated on concentration SO1861
Protocol: as §1, §2

`CC(=O)O[C@H]1[C@H](O[C@@H]2OC[C@@H](O)[C@H](O)[C@H]2O)[C@@H](O)[C@H](O[C@@H]2[C@H](O)[C@@H](O[C@@H]3O[C@@H](C)[C@H](O[C@@H]4OC[C@@H](O)[C@H](O[C@@H]5OC[C@@H](O)[C@H](O)[C@H]5O)[C@H]4O)[C@@H](O)[C@H]3O)[C@H](OC(=O)[C@]34CCC(C)(C)C[C@H]3C3=CC[C@@H]5[C@@]6(C)CC[C@H](O[C@H]7O[C@H](C(=O)O)[C@@H](O)[C@H](O[C@@H]8OC[C@@H](O)[C@H](O)[C@H]8O)[C@H]7O[C@@H]7O[C@H](CO)[C@H](O)[C@H](O)[C@H]7O)[C@@](C)(C=O)[C@@H]6CC[C@@]5(C)[C@]3(C)C[C@H]4O)O[C@@H]2C)O[C@@H]1C` [SO1861] gave an IC50 (SK-BR-3 cells) of 800 nM and an IC50 (A431 cells) of 600 nM.
